Experimental data taken from article PMC12687421, “Characterisation of an allosteric site in PLCγ enzymes and implications for development of their specific inhibitors” (Biochemical Journal, 2025).
Changes are numbered by the printed parent chain.

What was measured:
PLCγ1^K491D = target: T1, PLCγ1^K491D (Homo sapiens, UniProt P19174, I813T/K491D); experiment: Microscale thermophoresis (MST) binding, K491D variant; details: read-out: estimated Kd, MST, PLCγ1^K491D
T1 construct: made in house; host or cells: Escherichia coli T7 Express lysY/Iq
T1 sequence (P19174 1-1291 isoform P19174-2 K491D/I813T): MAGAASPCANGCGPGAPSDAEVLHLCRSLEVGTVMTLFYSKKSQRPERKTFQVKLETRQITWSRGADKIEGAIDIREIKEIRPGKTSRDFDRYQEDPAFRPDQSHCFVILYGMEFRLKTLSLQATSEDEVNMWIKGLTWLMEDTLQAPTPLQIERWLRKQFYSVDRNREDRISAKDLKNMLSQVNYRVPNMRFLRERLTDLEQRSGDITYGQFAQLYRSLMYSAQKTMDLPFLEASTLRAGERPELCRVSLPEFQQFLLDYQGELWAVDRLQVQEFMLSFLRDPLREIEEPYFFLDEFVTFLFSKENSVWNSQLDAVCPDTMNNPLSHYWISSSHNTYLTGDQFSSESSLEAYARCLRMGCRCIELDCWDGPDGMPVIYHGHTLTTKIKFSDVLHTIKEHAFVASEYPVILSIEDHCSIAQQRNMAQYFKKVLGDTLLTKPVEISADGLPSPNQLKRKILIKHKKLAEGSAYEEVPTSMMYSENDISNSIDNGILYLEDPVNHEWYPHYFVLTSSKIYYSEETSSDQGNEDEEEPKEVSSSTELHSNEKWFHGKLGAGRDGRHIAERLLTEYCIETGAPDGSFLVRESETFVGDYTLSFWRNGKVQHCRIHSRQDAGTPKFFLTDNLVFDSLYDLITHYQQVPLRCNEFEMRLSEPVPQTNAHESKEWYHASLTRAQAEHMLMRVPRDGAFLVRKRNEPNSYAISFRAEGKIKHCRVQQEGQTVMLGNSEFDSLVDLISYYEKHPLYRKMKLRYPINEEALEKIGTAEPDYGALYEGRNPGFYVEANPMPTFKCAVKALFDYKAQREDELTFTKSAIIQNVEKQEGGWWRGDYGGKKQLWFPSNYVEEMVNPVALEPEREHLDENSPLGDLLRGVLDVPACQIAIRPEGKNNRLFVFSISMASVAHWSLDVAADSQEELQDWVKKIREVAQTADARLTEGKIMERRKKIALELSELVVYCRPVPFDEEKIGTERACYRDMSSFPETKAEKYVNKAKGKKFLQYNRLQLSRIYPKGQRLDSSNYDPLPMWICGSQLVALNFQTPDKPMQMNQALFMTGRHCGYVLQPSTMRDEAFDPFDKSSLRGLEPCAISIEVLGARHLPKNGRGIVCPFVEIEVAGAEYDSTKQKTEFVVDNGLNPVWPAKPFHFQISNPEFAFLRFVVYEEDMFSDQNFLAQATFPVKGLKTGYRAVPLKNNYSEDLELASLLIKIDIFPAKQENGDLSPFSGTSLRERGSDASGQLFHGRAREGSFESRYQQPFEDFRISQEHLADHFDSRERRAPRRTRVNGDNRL
Experimental: Proteins were diluted to 200 nM in MST buffer [50 mM Hepes.KOH, 70 mM KCl, 5% (v/v) glycerol, 0.05% (v/v) Tween-20, 2 mM DTT (pH 7.5)] and subsequently labelled by adding an equal volume of 100 nM 2nd generation RED-Tris-NTA labelling dye and incubating for 30 minutes. […] An equal volume of labelled protein was added to each ligand concentration and the mixture taken up into a standard MST capillary. Samples were measured in a Monolith NT.115 pico instrument (Nanotemper) using the Nano-RED channel. Excitation power was set to 5% and MST power set to high. All experiments were performed at 25°C. All data were analysed using the manufacturer’s MO.Control software and repeated at least three times with representative experiments shown.

PLCγ1^wt = target: T2, PLCγ1^wt (Homo sapiens, UniProt P19174, I813T); experiment: PLC activity assay 1 (A1), XY-69 substrate in liposomes, nucleotide inhibition; format: biochemical; details: for IC50: XY-69 in liposomes, mean and SD, nine replicates
T2 construct: specific activities of PLCγ1^wt and PLCγ2^wt full-length proteins; made in house; host or cells: Escherichia coli T7 Express lysY/Iq
T2 sequence (P19174 1-1291 isoform P19174-2 I813T): T1 sequence (P19174 1-1291 isoform P19174-2 K491D/I813T) with D491K

Row | SMILES | Kd (PLCγ1^K491D) [µM] | IC50 in liposome assay (A1) relative to solution assay (A2), fold lower (PLCγ1^wt) | IC50 (PLCγ1^wt) [µM] | IC50 of ADP relative to ATP (fold lower) (PLCγ1^wt; assays A1 and A2)
1 | Nc1ncnc2c1ncn2[C@@H]1O[C@H](COP(=O)(O)OP(=O)(O)O)[C@@H](O)[C@H]1O [ADP] | 1000 to 2000 | eight-fold | 1 to 20 | 2–4 fold
2 | Nc1ncnc2c1ncn2[C@@H]1O[C@H](COP(=O)(O)OP(=O)(O)OP(=O)(O)O)[C@@H](O)[C@H]1O [ATP] | ~700 | – | 1 to 20 | –
